# Test results taken from ChEMBL document CHEMBL1201862, “PubChem BioAssay data set” (2004).
# Active and inactive are the calls of the source. For most assays here, no stated cut-off is given here; in the data, actives have a measured EC50 and inactives only a lower limit.
# Columns and labels:
# [1] = molecular target: T1, Streptokinase A (Streptococcus pyogenes serotype M1, UniProt P10520); assay: S. pyogenes streptokinase expression inhibitors, potency, dose response, plasminogen activation absorbance, OD405 (AID 1914); format: functional, Streptococcus pyogenes M1 GAS;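 further: secreted streptokinase activity via plasminogen activation per viability signal from cell pellet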
# T1 sequence (P10520 whole entry): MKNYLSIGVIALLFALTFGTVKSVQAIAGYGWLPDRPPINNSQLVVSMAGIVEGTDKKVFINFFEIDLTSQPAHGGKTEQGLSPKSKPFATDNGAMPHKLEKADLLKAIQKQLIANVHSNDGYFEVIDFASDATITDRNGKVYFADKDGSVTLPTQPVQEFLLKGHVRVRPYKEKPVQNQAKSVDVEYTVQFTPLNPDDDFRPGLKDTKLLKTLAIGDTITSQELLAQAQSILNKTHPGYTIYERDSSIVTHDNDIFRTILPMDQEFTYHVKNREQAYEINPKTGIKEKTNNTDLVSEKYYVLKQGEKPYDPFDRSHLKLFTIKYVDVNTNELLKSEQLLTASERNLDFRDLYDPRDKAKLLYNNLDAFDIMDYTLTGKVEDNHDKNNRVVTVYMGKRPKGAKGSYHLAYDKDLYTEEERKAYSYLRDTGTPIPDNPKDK
# [2] = test system: Streptococcus sp. 'group A'; assay: growth inhibition of control SK(-) GAS strain, dose response, counter-screen for streptokinase expression inhibitor project, luminescence, kanamycin, BacTiterGlo, confirmation (AID 1900); format: functional, organism-based
# [3] = test system: Streptococcus; assay: Group A Streptococcus viability loss, dose response, counter-screen for streptokinase expression inhibitor project, luminescence, BacTiterGlo (AID 1915); format: functional, organism-based;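 further: potency for reduction of bacterial viability or growth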
# [4] = molecular target: T2, Cytochrome P450 1A2 (Homo sapiens, UniProt P05177);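 further: PubChem cytochrome P450 panel assay, CYP1A2 panel member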
# T2 sequence (P05177 whole entry): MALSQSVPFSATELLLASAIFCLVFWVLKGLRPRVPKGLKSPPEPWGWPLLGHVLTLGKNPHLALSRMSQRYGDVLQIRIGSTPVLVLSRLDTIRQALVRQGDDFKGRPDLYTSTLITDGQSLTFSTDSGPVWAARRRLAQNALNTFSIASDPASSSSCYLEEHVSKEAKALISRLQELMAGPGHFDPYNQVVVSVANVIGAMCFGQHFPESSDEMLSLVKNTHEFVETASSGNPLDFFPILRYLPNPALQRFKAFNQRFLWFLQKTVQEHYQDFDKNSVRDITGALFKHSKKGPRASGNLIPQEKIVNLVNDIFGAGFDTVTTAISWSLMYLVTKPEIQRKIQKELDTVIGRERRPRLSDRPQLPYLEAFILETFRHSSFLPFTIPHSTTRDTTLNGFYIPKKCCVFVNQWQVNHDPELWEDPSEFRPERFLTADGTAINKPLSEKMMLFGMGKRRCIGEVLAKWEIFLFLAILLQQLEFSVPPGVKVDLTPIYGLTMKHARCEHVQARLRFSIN
# [5] = inhibitors of intracellular T. cruzi replication, confirmation, NIH3T3 host cells, beta-gal luminescence (AID 2044); format: functional, cell-based;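 further: intracellular parasites grown in NIH/3T3 mouse fibroblasts as host cells; luminescent beta-galactosidase reporter signal from transgenic T. cruzi replicating inside host cells; inhibitors lower the luminescence signal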
# [6] = cytotoxicity toward NIH3T3 fibroblasts, dose response, counter-screen, cell-based, ATP luminescence, mouse fibroblasts (AID 2010); format: functional;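 further: cells exposed to compound for about 90 hours before reading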
# [7] = Luminescence Cell-Based Dose Retest to Confirm Inhibitors of Cancer Stem Cells. [Related pubchem assays (depositor defined):AID2717, AID2721]; format: functional; details: Homo sapiens
# [8] = molecular target: T3, RNA-binding protein pos-1 (Caenorhabditis elegans, UniProt G5EF15); assay: inhibitors of POS-1/mex-3 RNA binding, dose response, biochemical, fluorescence polarization (AID 1964);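 further: purified POS-1 fused to maltose binding protein made in E. coli; potency of compounds blocking POS-1 binding to fluorescent RNA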
# T3 sequence (G5EF15 whole entry): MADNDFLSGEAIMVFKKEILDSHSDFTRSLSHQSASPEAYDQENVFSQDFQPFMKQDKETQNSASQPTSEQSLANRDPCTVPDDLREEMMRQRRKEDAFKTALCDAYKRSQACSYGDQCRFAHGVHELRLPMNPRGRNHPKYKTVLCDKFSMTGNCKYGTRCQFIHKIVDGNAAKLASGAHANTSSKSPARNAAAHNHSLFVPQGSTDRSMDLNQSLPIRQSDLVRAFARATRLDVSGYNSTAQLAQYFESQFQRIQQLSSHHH
# [9] = molecular target: T4, Zinc finger protein mex-5 (Caenorhabditis elegans, UniProt Q9XUB2); assay: MEX-5/TCR-2 RNA interaction inhibitors, dose response, biochemical, C. elegans, fluorescence polarization (AID 1960)
# T4 sequence (Q9XUB2 whole entry): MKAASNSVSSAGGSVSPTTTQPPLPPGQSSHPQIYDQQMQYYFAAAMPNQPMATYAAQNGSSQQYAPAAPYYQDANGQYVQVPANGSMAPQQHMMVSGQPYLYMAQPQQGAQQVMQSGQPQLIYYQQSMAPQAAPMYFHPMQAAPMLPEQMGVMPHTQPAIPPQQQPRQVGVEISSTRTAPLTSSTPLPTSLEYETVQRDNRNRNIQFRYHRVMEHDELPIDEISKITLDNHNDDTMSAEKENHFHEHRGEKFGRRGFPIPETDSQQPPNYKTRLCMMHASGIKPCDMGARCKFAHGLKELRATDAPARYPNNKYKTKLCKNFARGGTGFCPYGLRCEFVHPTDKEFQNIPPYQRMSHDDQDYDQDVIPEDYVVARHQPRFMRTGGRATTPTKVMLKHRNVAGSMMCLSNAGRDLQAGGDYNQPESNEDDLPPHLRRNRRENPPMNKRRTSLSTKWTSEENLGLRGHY
SMILES,EC50 [1],EC50 [2],EC50 [3],also measured
FC(F)(F)c1cccc(NC(=S)Nc2ccc(Cl)c(Cl)c2)c1,> 150 µM (not active),–,–,–
FC(F)(F)c1cccc(NC(S)=Nc2ccc(Cl)c(Cl)c2)c1,–,2.45 µM (active),6.78 µM (active),–
CCNc1ncc2nc(-c3cn(C)c4ccccc34)c(=O)n(C[C@H]3CCCO3)c2n1,–,–,–,AC50 [4]: 10 µM (inconclusive)
Cc1[nH]c2ccc(F)cc2c1CCN(Cc1cccnc1)C(S)=Nc1cccc(F)c1,–,–,–,EC50 [5]: 608 nM (active); EC50 [6]: > 30 µM (not active)
COc1ccc(NC2=NN=C(c3c(C)[nH]c4ccccc34)CS2)cc1,> 150 µM (not active),3.9 µM (active),13 µM (active),AC50 [7]: 7.35 µM (active)
COc1cccc(N2C(=O)C3NN=C(C(=O)CN4C(=O)c5ccccc5C4=O)C3C2=O)c1 (stereo not drawn),> 150 µM (not active),> 150 µM (not active),> 150 µM (not active),–
COc1cc2c(cc1NC(=O)CN(C)Cc1cccc(OC)c1OC)oc1ccccc12,–,–,–,AC50 [7]: 2.86 µM (active)
O=C(Nc1cccc(Cl)c1N1CCCCC1)c1ccc2c(c1)OCCO2,> 150 µM (not active),9.41 µM (active),> 150 µM (not active),AC50 [7]: 7.74 µM (active)
Cc1cccc(OCCCOc2cccc3cccnc23)c1C,> 150 µM (not active),16.9 µM (active),> 150 µM (not active),–
CCCCCCCCCCCCCCCCCCc1ccc(C(=O)/C=C\C(=O)O)cc1,–,–,–,AC50 [4]: 31.6 µM (inconclusive)
Cc1ccc(CCNc2c([N+](=O)[O-])nn(-c3ccccc3)[n+]2[O-])cc1,–,–,–,EC50 [5]: 1150 nM (active); EC50 [6]: > 30 µM (not active)
CC(NNc1ccccc1)=C1C(=O)NC(=O)NC1=O,–,–,–,AC50 [7]: 1.02 µM (active)
COC(=O)c1ccc(/C=C/c2c(-c3ccsc3)sc3ccccc23)cc1,–,–,–,AC50 [7]: 4.12 µM (active)
c1ccc(N2N=C(c3cccs3)CC2c2ccco2)cc1 (stereo not drawn),40.1 µM (active),> 150 µM (not active),> 150 µM (not active),–
CCN(CC)C1CCN(C(=O)c2cc(COc3ccc(F)cc3Cl)on2)C1 (stereo not drawn),–,–,–,AC50 [7]: 1.21 µM (active)
CC(=O)OCC1=C(C(=O)O)N2C(=O)C(NC(=O)CCn3nc(C)c(Cl)c3C)C2SC1 (stereo not drawn),–,2.13 µM (active),1.31 µM (active),–
Cn1c(Sc2ccccc2Cl)c(C=O)c2ccccc21,32.3 µM (inconclusive),27.1 µM (active),> 150 µM (not active),–
O=C(/C=C/c1cccc(F)c1)NC1CCN(Cc2ccccc2)CC1,–,–,–,EC50 [5]: 102 nM (active); EC50 [6]: > 60 µM (not active)
CC1CCN(c2ccccc2NC(=O)c2cc3ccccc3o2)CC1,25.2 µM (active),8.15 µM (active),42.4 µM (active),–
Cc1cccn2c(=O)c3cc(S(=O)(=O)c4ccccc4)c(=N)n(CC4CCCO4)c3nc12 (stereo not drawn),–,–,–,EC50 [8]: 5.7 µM (inconclusive); EC50 [9]: > 300 µM (inconclusive)
O=C(O)c1ccc(NC(=S)NC(=O)c2cccc(COc3ccccc3)c2)cc1,–,18.6 µM (active),38 µM (active),–
CCCCn1c(=O)c(C(=O)NCCc2ccccc2)c(O)c2ccccc21,30.9 µM (active),26.4 µM (active),> 150 µM (not active),–

SMILES,EC50 [1],EC50 [2],EC50 [3],also measured
O=C(NNC(=S)NC(=O)c1ccc(Br)cc1)c1cccc([N+](=O)[O-])c1,> 150 µM (not active),2.41 µM (active),9.6 µM (active),–
CC(=O)c1ccc(N2CCN(S(=O)(=O)c3cc(-c4cc(C)no4)ccc3C(C)C)CC2)cc1,–,–,–,AC50 [7]: < 0.16 µM (active)
CCOC(=O)c1ccc(N2C(=O)/C(=C\NNC(=O)C3COc4ccccc4O3)c3ccccc3C2=O)cc1 (stereo not drawn),–,1.02 µM (active),4.31 µM (active),–
CC(C)(c1ccc(OC[C@@H]2CO2)cc1)c1ccc(OC[C@H]2CO2)cc1,–,–,–,AC50 [4]: 31.6 µM (inconclusive)
Cc1cc(C)c(OCC(=O)Nc2ccccc2N2CCCCC2)c(C)c1,4.09 µM (active),25.7 µM (active),15.7 µM (active),–
CCOc1ccc(CN2CCN(Cc3[nH]c4ccc(OC)cc4c3C)CC2CCO)cc1 (stereo not drawn),–,–,–,EC50 [5]: 141 nM (active); EC50 [6]: > 60 µM (not active)
CCOC(=O)N1CCC(N2Cc3cccc(C(=O)Nc4ccc(F)cc4)c3C2=O)CC1,> 150 µM (not active),4.41 µM (active),> 150 µM (not active),–
CN(C)CCCN(C(=O)c1ccco1)c1nc2c(F)cc(F)cc2s1,–,–,–,EC50 [5]: 101 nM (active); EC50 [6]: > 60 µM (not active)
COc1ccc(C2CC(C)(c3ccc(OC)cc3OC)Nc3ccccc3N2)c(OC)c1 (stereo not drawn),–,–,–,EC50 [5]: 1960 nM (active); EC50 [6]: > 60 µM (not active)
C1CCC(C(C[C@@H]2CCCCN2)C2CCCCC2)CC1,–,–,–,AC50 [4]: 6.31 µM (inconclusive)
CCOC(=O)N1CCC(n2c(SCC(=O)Nc3ccccc3OC)nc3ccccc3c2=O)CC1,–,–,–,EC50 [5]: 5240 nM (active); EC50 [6]: > 60 µM (not active)
Cc1ccc(C(=O)C(c2ccccc2)N2Cc3ccccc3C2=N)cc1 (stereo not drawn),4.15 µM (active),5.37 µM (active),> 150 µM (not active),–
CC12CN3CC(C)(CN(C1)C31CCSCC1)C2=O,–,–,–,AC50 [4]: 12.6 µM (inconclusive)
O=C(N/N=C/c1c(O)ccc2ccccc12)Nc1ccccc1,–,8.29 µM (active),8.39 µM (active),EC50 [9]: > 300 µM (not active)
Cc1cccc(/C=N/NC(=O)Cc2ccc(Cl)cc2)c1O,–,4.52 µM (active),7.4 µM (active),–
CC[C@H]1OC(=O)C[C@@H](O)[C@H](C)[C@@H](O[C@@H]2O[C@H](C)C[C@H](N(C)C)[C@H]2O)[C@@H](CC=O)C[C@@H](C)C(=O)C=C[C@]2(C)O[C@H]2[C@@H]1C,–,< 0.06 µM (active),< 0.06 µM (active),–
C=CCc1cccc(/C=N/NC(=O)C(=O)Nc2ccc(C)cc2)c1O,> 150 µM (not active),> 150 µM (not active),> 150 µM (not active),–
O=C(N/N=C/c1cn(-c2cccs2)nc1-c1ccccc1)c1ccc(O)cc1,–,–,–,AC50 [7]: 8.96 µM (active)
Cc1cc(SCC(=O)N/N=C/c2ccc(O)cc2O)nc2ccccc12,–,–,–,EC50 [5]: 1710 nM (active); EC50 [6]: 18.8 µM (active); AC50 [7]: 4.06 µM (active)
Cc1ccccc1/C=N/Nc1nc2ccccc2[nH]1,> 150 µM (not active),146 µM (active),> 150 µM (not active),–
CCOC(=O)c1c(/N=C/C2C(=O)NC(=S)NC2=O)sc(C)c1C,–,–,–,EC50 [8]: > 300 µM (not active); EC50 [9]: > 300 µM (inconclusive)
Cc1cccc(CN2CCN(C(c3ccccc3)c3ccc(Cl)cc3)CC2)c1 (stereo not drawn) [MECLIZINE DIHCL],–,–,–,AC50 [7]: 3.57 µM (active)
